Laboratory results from ChEMBL document CHEMBL1201862, “PubChem BioAssay data set” (2004).
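These data come from cells grown in 96-well plates and exposed to compound for 48 hours at five concentrations. GI50 marks 50% less growth.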 The source made the active and inactive calls. No stated cut-off is given here; in the data, active = GI50 up to about 1.1 µM and inactive = higher.

What was measured:
Experiment in all cases: growth of human tumour cells (NCI), 48 h
[1] = system: U-251
[2] = system: MOLT-4
[3] = system: RPMI-8226
[4] = system: COLO 205
[5] = system: HCT-116
[6] = system: OVCAR-5
[7] = system: MCF7
[8] = system: SNB-19
[9] = system: Hs-578T
[10] = system: ACHN
[11] = system: UO-31
[12] = system: EKVX
[13] = system: UACC-257
[14] = system: A549
[15] = system: HOP-92
[16] = system: KM12
[17] = system: PC-3
[18] = system: MDA-N
[19] = system: T47D
[20] = system: NCI-H522

Measured: GI50

O=C1/C(=C/c2ccc(O)c(CN3CCCCC3)c2)CCC/C1=C\c1ccc(O)c(CN2CCCCC2)c1
inactive: [1] 5.22 µM | [2] 4 µM | [3] 6.85 µM | [4] 2.55 µM | [5] 2.4 µM | [6] 29.6 µM | [7] 3.26 µM | [8] 5.04 µM | [9] 8.24 µM | [10] 6.31 µM | [11] 10.4 µM | [12] 8.85 µM | [13] 10.6 µM | [14] 16.7 µM | [15] 4.26 µM | [16] 4.12 µM | [17] 7.05 µM | [18] 4.66 µM | [19] 17.5 µM

O=C(NC(Cl)(C(F)(F)F)C(F)(F)F)c1ccc(F)cc1
inactive: [1] > 100 µM | [2] > 100 µM | [3] > 100 µM | [4] > 100 µM | [5] > 100 µM | [6] > 100 µM | [7] > 100 µM | [8] > 100 µM | [9] > 100 µM | [10] > 100 µM | [11] > 100 µM | [12] > 100 µM | [13] > 100 µM | [14] > 100 µM | [15] > 100 µM | [16] > 100 µM | [17] > 100 µM | [18] > 100 µM | [19] > 100 µM

C=C1CCCCCCCCCCC1[S+]([O-])c1ccccc1 (centres undefined)
inactive: [1] 21 µM | [2] 21.8 µM | [3] 20.8 µM | [4] 25.6 µM | [5] 30.5 µM | [6] 49.8 µM | [7] 30.1 µM | [8] 56.6 µM | [9] 44.5 µM | [10] 29.8 µM | [11] 18.2 µM | [12] > 100 µM | [13] 47.1 µM | [14] 33.3 µM | [15] > 100 µM | [17] 31.5 µM | [18] 34 µM | [19] > 100 µM

COc1ccc(CNC2=N/C(=C\c3ccccc3Cl)C(=O)N2C)cc1
inactive: [1] 17.9 µM | [2] 27.1 µM | [4] 24.9 µM | [5] 18.4 µM | [20] 20.5 µM | [6] 27.9 µM | [7] 25.5 µM | [8] 38.6 µM | [9] 57.4 µM | [10] 29.6 µM | [12] 28.3 µM | [13] 33.6 µM | [14] 31.1 µM | [15] 23.1 µM | [16] 20.4 µM | [17] 28.1 µM | [18] 18.8 µM | [19] 14.2 µM
